# Results: US9975854B2, “Benzomorphan analogs and use thereof” (Purdue Pharma L.P., priority 2014, dated 2018)
# Read-outs that look alike come from different tables or passages of the source.
# Biological target: μ-opioid receptor (Homo sapiens (Human), UniProt P35372)
# Test: μ-opioid receptor [35S]GTPγS functional assay, HEK-293 or CHO cells
# Assay type: biochemical
# Conditions: for Emax: relative to DAMGO
# Experimental: [^35S]GTPγS functional assays were conducted using freshly thawed μ-receptor membranes prepared in-house from a cell line expressing recombinant opioid receptor in a HEK-293, CHO or U-2 OS cell background, or purchased from a commercial source (Perkin Elmer, Shelton, Conn.; or DiscovRx, Fremont, Calif.). Assay reactions were prepared by sequentially adding the following reagents to binding buffer (100 mM NaCl, 10 mM MgCl2, 20 mM HEPES, pH 7.4) on ice (final concentrations indicated): membrane protein (0.026 mg/mL), saponin ([…]), GDP ([…]) and [^35S]GTPγS (0.20 nM; Perkin Elmer, Shelton, Conn.). The prepared membrane solution (190 μl/well) was transferred to 96-shallow well polypropylene plates containing 10 μl of 20× concentrated stock solutions of the agonist [D-Ala^2, N-methyl-Phe^4 Gly-ol^5]-enkephalin (DAMGO) prepared in dimethyl sulfoxide (DMSO). Plates were incubated for 30 min at about 25° C. with shaking. Reactions were terminated by rapid filtration onto 96-well Unifilter GF/B filter plates (Perkin Elmer, Shelton, Conn.) using a 96-well tissue harvester (Perkin Elmer, Shelton, Conn.) followed by three filtration washes with 200 μl of ice-cold wash buffer (10 mM NaH2PO4, 10 mM Na2HPO4, pH 7.4). Filter plates were subsequently dried at 50° C. for 2-3 hr. BetaScint scintillation cocktail (Perkin Elmer, Shelton, Conn.) was added (50 μl/well) and plates were counted using a Packard Top-Count for 1 min/well. Data were analyzed using the sigmoidal dose-response curve fitting functions in GraphPad PRISM v. 3.0, or an in-house function for non-linear, sigmoidal dose-response curve-fitting.
# μ GTP EC50 is the concentration of a compound providing 50% of the maximal response for the compound at a μ-opioid receptor.
# μ GTP Emax (%) is the maximal effect elicited by a compound relative to the effect elicited by DAMGO, a standard p agonist. Generally, the μ GTP Emax (%) value measures the efficacy of a compound to treat or prevent pain or other Conditions.
# In TABLE 4, activity response of certain Compounds of the Invention to the μ- and κ-opioid receptors was determined as described above for functional assays using HEK-293 or CHO cells.
# [1] = HEK-293 or CHO cells, read-out: GTPγS μ EC50
# [2] = HEK-293 or CHO cells, bound given in uM, read-out: GTPγS μ EC50
Structure (SMILES),EC50 [µM],Emax (HEK-293 or CHO cells) [%],EC50 [1] [µM],EC50 [2] [µM]
"CN1CC[C@@]2(C)c3cc(C(N)=O)ccc3C[C@@H]1C2(O)O [Compound 118, (2R,6S)-11,11-dihydroxy-3,6-dimethyl-1,2,3,4,5,6-hexahydro-2,6-methanobenzo[d]azocine-8-carboxamide]",17 ± 0.566,6.56 ± 0.6,,
"CN1CC[C@@]2(C)c3cc(O)ccc3C[C@@H]1[C@@H]2N(C)C(=O)Cc1ccc(S(C)(=O)=O)cc1 [Compound 28, N-((2R,6S,11R)-8-hydroxy-3,6-dimethyl-1,2,3,4,5,6-hexahydro-2,6-methanobenzo[d]azocin-11-yl)-N-methyl-2-(4-(methylsulfonyl)phenyl)acetamide]",,84.7 ± 1.2,0.182 ± 0.012,
"CN1CCC2(C)c3cc(O)ccc3C[C@@H]1C2NC(=O)CCC(=O)Nc1ccc(F)cc1F (stereo in doubt) [Compound 34, N^1-(2,4-difluorophenyl)-N^4-((2R,6S,11S)-8-hydroxy-3,6-dimethyl-1,2,3,4,5,6-hexahydro-2,6-methanobenzo[d]azocin-11-yl)succinamide]",,2.67 ± 0.33,,> 20
"CCN(CCc1ccc(S(C)(=O)=O)cc1)[C@H]1[C@H]2Cc3ccc(O)cc3[C@]1(C)CCN2C [Compound 98, (2R,6S,11R)-11-(ethyl(4-(methylsulfonyl)phenethyl)amino)-3,6-dimethyl-1,2,3,4,5,6-hexahydro-2,6-methanobenzo[d]azocin-8-ol]",,44.6 ± 0.6,0.00064 ± 8.2e-05,
"CN1CC[C@@]2(C)c3cc(O)ccc3C[C@@H]1[C@H]2N(C)C(=O)Cc1ccc(S(C)(=O)=O)cc1 [Compound 35, N-((2R,6S,11S)-8-hydroxy-3,6-dimethyl-1,2,3,4,5,6-hexahydro-2,6-methanobenzo[d]azocin-11-yl)-N-methyl-2-(4-(methylsulfonyl)phenyl)acetamide]",,2 ± 0.41,,> 20
"CN1CC[C@@]2(C)c3cc(C#N)ccc3C[C@@H]1[C@@H]2NCCc1ccccc1 [Compound 113, (2R,6S,11R)-3,6-dimethyl-11-(phenethylamino)-1,2,3,4,5,6-hexahydro-2,6-methanobenzo[d]azocine-8-carbonitrile]",,10.3 ± 1.1,11.7 ± 2.81,
"CN1CC[C@@]2(C)c3cc(O)ccc3C[C@@H]1[C@@H]2NCCCCNC(=O)OC(C)(C)C [Compound 18, Tert-butyl (4-(((2R,6S,11R)-8-hydroxy-3,6-dimethyl-1,2,3,4,5,6-hexahydro-2,6-methanobenzo[d]azocin-11-yl)amino)butyl)carbamate]",,48.4 ± 3.28,0.124 ± 0.0183,
"CN1CC[C@@]2(C)c3cc(C(=O)O)ccc3C[C@@H]1[C@H]2NCCc1ccc(S(C)(=O)=O)cc1 [Compound 125, (2R,6S,11S)-3,6-dimethyl-11-((4-(methylsulfonyl)phenethyl)amino)-1,2,3,4,5,6-hexahydro-2,6-methanobenzo[d]azocine-8-carboxylic acid]",,0,,> 20
"CN1CC[C@@]2(C)c3cc(O)ccc3C[C@@H]1[C@@H]2N(C)CC1CCN(C(=O)C(C)(C)C)CC1 [Compound 52, 1-(4-((((2R,6S,11R)-8-hydroxy-3,6-dimethyl-1,2,3,4,5,6-hexahydro-2,6-methanobenzo[d]azocin-11-yl)(methyl)amino)methyl)piperidin-1-yl)-2,2-dimethylpropan-1-one]",,31.3 ± 0.88,0.00122 ± 0.0002,
"COc1ccc2c(c1)[C@]1(C)CCN(C)[C@H](C2)[C@@H]1N(C)C(=O)CN1CCNC(=O)C1 [Compound 44, N-((2R,6S,11R)-8-methoxy-3,6-dimethyl-1,2,3,4,5,6-hexahydro-2,6-methanobenzo[d]azocin-11-yl)-N-methyl-2-(3-oxopiperazin-1-yl)acetamide]",,43 ± 2.52,,> 20
"CN1CC[C@@]2(C)c3cc(O)ccc3C[C@@H]1[C@@H]2N(C)C(=O)Nc1nc2ccccc2o1 [Compound 121, 3-(Benzo[d]oxazol-2-yl)-1-((2R,6S,11R)-8-hydroxy-3,6-dimethyl-1,2,3,4,5,6-hexahydro-2,6-methanobenzo[d]azocin-11-yl)-1-methylurea]",,60.1 ± 4.74,0.0824 ± 0.0104,
"CN1CCC2(C)c3cc(O)ccc3C[C@@H]1C2NC(=O)/C=C/c1ccoc1 (stereo in doubt) [Compound 32, (E)-3-(furan-3-yl)-N-((2R,6S,11S)-8-hydroxy-3,6-dimethyl-1,2,3,4,5,6-hexahydro-2,6-methanobenzo[d]azocin-11-yl)acrylamide]",,2.33 ± 0.88,,> 20
"CN1CC[C@@]2(C)c3cc(O)ccc3C[C@@H]1[C@@H]2N(C)CC(=O)Nc1ccc(C(F)(F)F)cc1 [Compound 41, 2-(((2R,6S,11R)-8-hydroxy-3,6-dimethyl-1,2,3,4,5,6-hexahydro-2,6-methanobenzo[d]azocin-11-yl)(methyl)amino)-N-(4-(trifluoromethyl)phenyl)acetamide]",,5.33 ± 1.45,,> 20
"CN1CC[C@@]2(C)c3cc(C(N)=O)ccc3C[C@@H]1[C@@H]2N(C)C(=O)Nc1ccc(C#N)cc1 [Compound 119, (2R,6S,11R)-11-(3-(4-cyanophenyl)-1-methylureido)-3,6-dimethyl-1,2,3,4,5,6-hexahydro-2,6-methanobenzo[d]azocine-8-carboxamide]",,43.9 ± 1.88,4.95 ± 0.508,
"CN1CC[C@@]2(C)c3cc(O)ccc3C[C@@H]1[C@H]2NCCCCNC(=O)OC(C)(C)C [Compound 19, Tert-butyl (4-(((2R,6S,11S)-8-hydroxy-3,6-dimethyl-1,2,3,4,5,6-hexahydro-2,6-methanobenzo[d]azocin-11-yl)amino)butyl)carbamate]",,0,,> 20
"COc1ccc2c(c1)[C@]1(C)CCN(C)[C@H](C2)[C@@H]1N(C)C(=O)Nc1nc2ccccc2[nH]1 [Compound 111, 3-(1H-benzo[d]imidazol-2-yl)-1-((2R,6S,11R)-8-methoxy-3,6-dimethyl-1,2,3,4,5,6-hexahydro-2,6-methanobenzo[d]azocin-11-yl)-1-methylurea]",,67.4 ± 3.48,0.79 ± 0.0985,
